≈ marks a conversion by molar mass, not a printed value. Read-outs that look alike come from different tables or passages of the source.
What was measured:
[1] = biological target: T1, PDC-3 (Pseudomonas aeruginosa, UniProt P24735, T105A); experiment: Thermal denaturation by circular dichroism, PDC-3; type: binding
T1 construct: The PDC-3 expression construct was created in a similar manner but starting with a previously described pBC SK(−) vector; made in house; host or cells: E. coli BL21-CodonPlus (DE3)-RP, pET24a(+)
Method: Competitive enzyme inhibitors can increase enzyme thermal stability as a result of binding to the active site.
Circular dichroism (CD) melting curve experiments were conducted using a J-815 spectropolarimeter (Jasco) and a Peltier effect temperature controller. Suprasil quartz cuvettes with a 0.1 cm path length (Hellma Analytics) were used in all experiments. […] Two-state behavior was observed, as indicated by identical curves at each wavelength. Equilibrium constants were calculated, and the melting temperature, Tm, was calculated from equilibrium denaturation data as previously described ([28]).

[2] = tested on: isogenic E. coli strains expressing PDC R2-loop deletion variants (PDC-88 to PDC-92); experiment: MIC changes across the five isogenic E. coli R2-loop deletion strains; type: cell-based, Escherichia coli; settings: R2-loop deletion variant strains
Method: (§1) Modal broth microdilution MICs (or median broth microdilution MICs where appropriate) were determined in accordance with Clinical and Laboratory Standards Institute (CLSI) M07 guidelines ([43]). Isogenic E. coli DH10B cells expressing the abovementioned plasmid-encoded PDC constructs were used. […] CLSI quality control strains Escherichia coli NCTC 13353, E. coli ATCC 35218, and Klebsiella pneumoniae ATCC 700603 were used during testing ([24]).

[3] = biological target: T2, PDC-88 (Pseudomonas aeruginosa, UniProt P24735, DEL316-317/G27D/G391A/T105A/V205L/V356I); type: binding
T2 construct: NdeI 5′-[…]-3ʹ and BamHI 5ʹ-[…]-3ʹ; His tag removed) (N); made in house; host or cells: E. coli BL21-CodonPlus (DE3)-RP, pET24a(+)
Method: Circular dichroism (CD) melting curve experiments were conducted using a J-815 spectropolarimeter (Jasco) and a Peltier effect temperature controller. Suprasil quartz cuvettes with a 0.1 cm path length (Hellma Analytics) were used in all experiments. […] Equilibrium constants were calculated, and the melting temperature, Tm, was calculated from equilibrium denaturation data as previously described ([28]).

[4] = tested on: E. coli DH10B/pTU626 (PDC-89); experiment: Broth microdilution MIC, isogenic E. coli expressing PDC-89; type: cell-based; settings: Escherichia coli
Method: (§2) Genetic constructs used for minimum inhibitory concentration (MIC) testing were designed by Venatorx Pharmaceuticals and codon-optimized for use in E. coli and synthesized by Twist Bioscience as described previously ([9]). […] DH10B cells expressing an empty pET24a(+) vector (Novagen) were also grown, and the plasmid purified. Both pCR4-TOPO-PDC-88 and empty pET24a(+) were cut with BamHI and NdeI, the digests run on low-melting point agarose gels, and the bands of interest excised and ligated to yield a PDC-88 expressing pET24a(+) construct with the His tag removed. The PDC-3 expression construct was created in a similar manner but starting with a previously described pBC SK(−) vector ([42]). The final plasmids were grown in E. coli DH10B cells and purified.
as §1

[5] = tested on: E. coli DH10B/pTU627 (PDC-90); experiment: Broth microdilution MIC, isogenic E. coli expressing PDC-90; type: cell-based; settings: Escherichia coli
Method: as §2, §1

[6] = tested on: E. coli DH10B/pTU501 (vector); experiment: Broth microdilution MIC, isogenic E. coli empty vector control; type: cell-based; settings: Escherichia coli
Method: as §2, §1

[7] = biological target: T1, PDC-3; experiment: Timed ESI-MS of acyl-enzyme formation, PDC-3; type: biochemical; settings: timed ESI-MS, 1 to 30 min (ATM to 60 min)
Method: (§3) Timed ESI-MS experiments allow tracking of the reaction over time and determination of product modification, enabling the elucidation of mechanistic detail. Time courses were collected for both PDC-3 and PDC-88 with FEP (Fig. 4), CAZ (Fig. S1), TOL (Fig. S2), and ATM (Fig. S3). Substrate modification (here, loss of the R2 group) was determined based on differences between masses of apo and acyl-enzyme peaks (Fig. S4). […] Based on the differences in mass between the apo enzyme peaks, the acyl-enzyme peaks, and the molecular masses of each substrate, the mass of the adducts was determined and used to predict any portion of the substrate molecule that might be lost during the reaction (Fig. S4). As expected ([26][–][28]), all three cephalosporin antibiotics (FEP, CAZ, and TOL) lost their R2 groups during the reaction, while ATM (the sole monobactam) maintained its initial mass.
(§4) Five micrograms of PDC-3 or PDC-88 was incubated at the indicated molar ratio (1:2 to 1:100 PDC:β-lactam) in a total volume of 20 µL in 1× PBS at pH 7.4 at room temperature for the duration of the indicated time points. Reactions were quenched with the addition of 10 µL acetonitrile and added to 1 mL of 0.1% formic acid in water.
(§5) Data were collected using a Waters Synapt G2-Si quadrupole time-of-flight (Q-TOF) mass spectrometer and Waters Acquity UPLC BEH C18 1.7 µm column (2.1 by 100 mm). MassLynx V4.1 was used to deconvolute protein peaks. The tune settings for each sample were as follows: capillary voltage of 3.5 kV, sampling cone voltage of 35 V, source offset of 35 V, source temperature of 100°C, desolvation temperature of 500°C, cone gas flow rate of 100 L/h, desolvation gas flow rate of 800 L/h, and nebulizer bar at 6.0. Mobile phase A was 0.1% formic acid in water. Mobile phase B was 0.1% formic acid in acetonitrile. The mass accuracy of this system is ±5 Da.

[8] = tested on: E. coli DH10B/pTU629 (PDC-92); experiment: Broth microdilution MIC, isogenic E. coli expressing PDC-92; type: cell-based; settings: Escherichia coli
Method: as §2, §1

[9] = tested on: E. coli DH10B/pTU606 (PDC-1); experiment: Broth microdilution MIC, isogenic E. coli expressing PDC-1; type: cell-based; settings: Escherichia coli
Method: as §2, §1

[10] = biological target: T2, PDC-88; experiment: Timed ESI-MS of acyl-enzyme formation, PDC-88; type: biochemical; settings: timed ESI-MS, 1 to 30 min (ATM to 60 min)
Method: as §3, §4, §5

[11] = tested on: E. coli DH10B/pTU609 (PDC-3); experiment: Broth microdilution MIC, isogenic E. coli expressing PDC-3; type: cell-based; settings: Escherichia coli
Method: as §2, §1

[12] = tested on: E. coli DH10B/pTU625 (PDC-88); experiment: Broth microdilution MIC, isogenic E. coli expressing PDC-88; type: cell-based, Escherichia coli; settings: Escherichia coli
Method: as §2, §1

[13] = tested on: PDC-88; experiment: Spectrophotometric β-lactam hydrolysis (progress curves, steady-state kinetics) by PDC-88; type: biochemical, Pseudomonas aeruginosa; settings: over 900 s
Method: In order to determine the impact of the PDC-88 variant on hydrolysis, we determined hydrolysis progress curves for PDC-3, PDC-88, and a strongly hydrolyzing comparator (NDM-1 or PER-2) for cefepime (FEP, Fig. 3A), ceftazidime (CAZ, Fig. 3B), ceftolozane (TOL, Fig. 3C), and aztreonam (ATM, Fig. 3D).
β-Lactamase kinetic and inhibitor constants were determined using an Agilent 8453 UV-Visible Spectrophotometer to record progress curves and determine initial rates and other kinetic parameters as appropriate. Reactions were carried out in 1× phosphate-buffered saline (PBS) (pH 7.4) at room temperature in a 0.2 cm path-length quartz cuvette (Hellma Analytics). Reads were taken every 10 s to minimize UV-mediated background hydrolysis.
The extinction coefficients used were: nitrocefin, Δε482 = 17,400 M^−1 cm^−1, and cefepime, Δε260 = −10,000 M^−1 cm^−1.
The kinetic constants KM and Vmax were determined using a nonlinear least-squares regression of the data to the Henri-Michaelis-Menten equation (equation 1) in Origin Version 2020b (OriginLab, Northampton, MA), where v is the velocity of the reaction; Vmax is the theoretical maximum velocity; KM is the Michaelis constant; and [S] is the substrate concentration: […]

[14] = tested on: K. pneumoniae ATCC 700603; experiment: Broth microdilution MIC, CLSI quality control strain; type: cell-based; settings: Klebsiella pneumoniae
Method: as §1

[15] = tested on: E. coli DH10B/pTU628 (PDC-91); experiment: Broth microdilution MIC, isogenic E. coli expressing PDC-91; type: cell-based; settings: Escherichia coli
Method: as §2, §1

[16] = tested on: E. coli ATCC 35218; experiment: Broth microdilution MIC, CLSI quality control strain; type: cell-based; settings: Escherichia coli, ATCC35218, read-out: MIC TOL TZB
Method: as §1

Compound: C[C@]1(Cn2ccnn2)[C@H](C(=O)O)N2C(=O)C[C@H]2S1(=O)=O [TZB, tazobactam]
- increase of Tm upon addition of inhibitor ([1]; PDC-3): 1 °C
- Tm ([1]; PDC-3 with inhibitor, circular dichroism, PDC-3 alone 52°C): 53 °C
- decrease of FEP MIC of variants by inhibitor ([2]; inhibitor at constant 4 µg/mL with FEP): two- to fourfold
- restoration of FEP activity / susceptibility by inhibitor ([2]; inhibitor at constant 4 µg/mL): failed to restore susceptibility for any of the variants
- increase of Tm upon addition of inhibitor ([3]; PDC-88): 1 °C
- Tm ([3]; PDC-88 with inhibitor, circular dichroism, PDC-88 alone 53°C): 54 °C

Compound: CC(C)(O/N=C(\C(=O)N[C@@H]1C(=O)N2C(C(=O)[O-])=C(C[n+]3ccccc3)CS[C@H]12)c1csc(N)n1)C(=O)O [CAZ, ceftazidime]
- MIC ([4]; read-out: MIC CAZ AVI): 1 µg/mL (≈ 1.83 µM)
- MIC ([4]; E. coli DH10B/pTU626 (PDC-89), read-out: MIC CAZ Alone): 128 µg/mL (≈ 234 µM)
- MIC ([5]; read-out: MIC CAZ AVI): 2 µg/mL (≈ 3.66 µM)
- MIC ([5]; E. coli DH10B/pTU627 (PDC-90), read-out: MIC CAZ Alone): > 128 µg/mL
- MIC ([6]; read-out: MIC CAZ AVI): 0.5 µg/mL (≈ 0.915 µM)
- MIC ([6]; read-out: MIC CAZ Alone): 0.5 µg/mL (≈ 0.915 µM)
- acyl-enzyme complex formation and deacylation [7]: formed acyl-enzyme complexes with CAZ that deacylated slowly
- MIC ([8]; read-out: MIC CAZ AVI): 1 µg/mL (≈ 1.83 µM)
- MIC ([8]; E. coli DH10B/pTU629 (PDC-92), read-out: MIC CAZ Alone): > 128 µg/mL
- MIC ([9]; read-out: MIC CAZ AVI): 1 µg/mL (≈ 1.83 µM)
- MIC ([9]; E. coli DH10B/pTU606 (PDC-1), read-out: MIC CAZ Alone): 64 µg/mL (≈ 117 µM)
- acyl-enzyme complex formation and deacylation [10]: formed acyl-enzyme complexes with CAZ that deacylated slowly
- MIC ([11]; read-out: MIC CAZ AVI): 1 µg/mL (≈ 1.83 µM)
- MIC ([11]; E. coli DH10B/pTU609 (PDC-3), read-out: MIC CAZ Alone): 64 µg/mL (≈ 117 µM)
- MIC ([12]; read-out: MIC CAZ AVI): 1 µg/mL (≈ 1.83 µM)
- MIC ([12]; E. coli DH10B/pTU625 (PDC-88), read-out: MIC CAZ Alone): 128 µg/mL (≈ 234 µM)
- difference between hydrolysis progress curves of PDC-3 and PDC-88 [13]: no appreciable difference
- MIC ([14]; ATCC700603, read-out: MIC CAZ AVI): 1 µg/mL (≈ 1.83 µM)
- MIC ([14]; ATCC700603, read-out: MIC CAZ Alone): 32 µg/mL (≈ 58.5 µM)
- MIC ([15]; read-out: MIC CAZ AVI): 1 µg/mL (≈ 1.83 µM)
- MIC ([15]; E. coli DH10B/pTU628 (PDC-91), read-out: MIC CAZ Alone): 128 µg/mL (≈ 234 µM)

Compound: Cn1c(N)c(NC(=O)NCCN)c[n+]1CC1=C(C(=O)O)N2C(=O)[C@@H](NC(=O)/C(=N\OC(C)(C)C(=O)[O-])c3nsc(N)n3)[C@H]2SC1 [TOL, ceftolozane]
- MIC ([4]; read-out: MIC TOL TZB): 8 µg/mL (≈ 12 µM)
- MIC ([4]; E. coli DH10B/pTU626 (PDC-89), read-out: MIC TOL Alone): 16 µg/mL (≈ 24 µM)
- MIC ([5]; read-out: MIC TOL TZB): 16 µg/mL (≈ 24 µM)
- MIC ([5]; E. coli DH10B/pTU627 (PDC-90), read-out: MIC TOL Alone): 16 µg/mL (≈ 24 µM)
- MIC ([6]; read-out: MIC TOL Alone): 0.5 µg/mL (≈ 0.75 µM)
- MIC ([6]; read-out: MIC TOL TZB): 0.5 µg/mL (≈ 0.75 µM)
- acyl-enzyme complex formation and deacylation [7]: did not form a detectable acyl-enzyme complex
- MIC ([8]; read-out: MIC TOL TZB): 8 µg/mL (≈ 12 µM)
- MIC ([8]; E. coli DH10B/pTU629 (PDC-92), read-out: MIC TOL Alone): 16 µg/mL (≈ 24 µM)
- MIC ([9]; read-out: MIC TOL TZB): 4 µg/mL (≈ 6 µM)
- MIC ([9]; E. coli DH10B/pTU606 (PDC-1), read-out: MIC TOL Alone): 4 µg/mL (≈ 6 µM)
- acyl-enzyme complex formation and deacylation [10]: formed an acyl-enzyme complex that deacylated at a moderate rate
- MIC ([11]; read-out: MIC TOL TZB): 4 µg/mL (≈ 6 µM)
- MIC ([11]; E. coli DH10B/pTU609 (PDC-3), read-out: MIC TOL Alone): 4 µg/mL (≈ 6 µM)
- MIC ([12]; read-out: MIC TOL TZB): 8 µg/mL (≈ 12 µM)
- MIC ([12]; E. coli DH10B/pTU625 (PDC-88), read-out: MIC TOL Alone): 16 µg/mL (≈ 24 µM)
- difference between hydrolysis progress curves of PDC-3 and PDC-88 [13]: no appreciable difference
- MIC [16]: 0.25 µg/mL (≈ 0.375 µM)
- MIC ([15]; read-out: MIC TOL TZB): 16 µg/mL (≈ 24 µM)
- MIC ([15]; E. coli DH10B/pTU628 (PDC-91), read-out: MIC TOL Alone): 16 µg/mL (≈ 24 µM)

Source: paper PMC12217481, “Structure and mechanism of taniborbactam inhibition of the cefepime-hydrolyzing, partial R2-loop deletion Pseudomonas-derived cephalosporinase variant PDC-88” (Antimicrobial Agents and Chemotherapy, 2025)
